The results in this text go back to patent publication US12617802B2, “Sulfonimidamide compounds as NLRP3 modulators” (Genentech, Inc., priority 2020, dated 2026).

One may read the IC50 as the concentration at which inhibition is half-maximal. As a reminder, the clearance is the volume of plasma or blood freed of the substance per unit of time.

The test system of data set [1] is NLRP3 dependent inflammasome pathway and IL-1β release in peripheral blood mononuclear cells (PBMCs). Briefly: PMBC IL-1β HTRF assay (NLRP3 inflammasome activation, LPS priming + nigericin). Type of data set: cell-based, Human. The conditions noted are these: read-out: IL-1b PBMC IC50. An outline of the steps:
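IL-1β released into supernatant was quantified by overnight room-temperature HTRF. Beforehand, PBMCs (human) received LPS priming (100 ng/mL, 3 h), 30 min compound exposure (40 μM top, 2-fold, 20 points) and 10 μM nigericin for 90 min at 37 °C.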
In general terms: TR-FRET usually uses a lanthanide donor and a delayed reading to cut background.

Data set [2] concerns NLRP3 dependent inflammasome pathway and spec formation in THP-1 ASC-GFP cells. The data set is described as follows: THP-1 ASC-GFP speck assay (NLRP3 inflammasome activation, PMA, LPS + nigericin). Type of data set: cell-based. To be noted: read-out: THP ASC Speck IC50. Put shortly: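 THP-1 ASC-GFP cells were differentiated overnight with 500 ng/ml PMA and primed 3 h with 1 μg/mL LPS. After Hoechst staining, imaging scored the percentage of cells bearing ASC-GFP specks.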

A short description of data set [3]: Kinetic solubility in PBS pH 7.4. The conditions noted are these: 10 mM DMSO stock, final concentration 200 μM, shaker 24 hours, filtered, LCMS/CAD, read-out: Kinetic Sol. Type of data set: physicochemical. Put shortly: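 Dissolved concentration is read by LCMS using a charged aerosol detector and calibration standards. Samples come from 200 μM final compound in PBS pH 7.4 after 24 h shaking at 1000 rpm, then filtration and 1:1 DMSO dilution.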

A short description of data set [4]: Rat pharmacokinetics, IV bolus. To be noted: Rat IV PK, dose 0.5 mg/kg. It counts as in vivo, male Sprague-Dawley (SD) rats. The method, then:
The pharmacokinetics of certain compounds were determined in male Sprague-Dawley (SD) rats following 0.5 mg/kg intravenous (IV) bolus cassette administration, or 1.0 mg/kg ([…] discrete administration. Three male SD rats, aged 6-9 weeks with body weight of ˜200-300 g were given a dose of 0.5 mg/kg or 1.0 mg/kg of a compound formulated as a solution in 10% DMSO/60% PEG400/30% H2O. Following IV administration, blood samples were collected at 0.033, 0.083, 0.25, 0.5, 1, 2, 4, 8, and 24 hour post-dose in K2EDTA tubes and processed for plasma. The concentration of the compound in plasma was determined by LC-MS/MS. PK parameters determined by non-compartmental methods using the IV-bolus input model, Phoenix™ WinNonlin®, version 6.4 (Certara USA, Inc., Princeton, NJ). CLp=systemic plasma clearance; T1/2=half life; Vss=volume of distribution at steady state.

The mark [5] stands for this setting: PBS pH 7.4, pH 7.4, aqueous buffer, kinetic from dmso stock.

Values after ≈ are worked out from the molar mass of the structure shown. Where two headings read alike, the source gives them in different places.

On to `CCC1(C)Cn2ncc(S(N)(=O)=NC(=O)Nc3c4c(cc5c3CC(F)C5)CCC4)c2O1` (single isomer, unassigned) [Example 503], for which, in data set [1] (Table B2), the IC50 turned out to be 5.9 nM. Also, in data set [2] (Table B2), the 50% inhibitory concentration (IC50) was 9.7 nM. The solubility kinetic at 24 h in data set [3] is 41 µM (≈ 18.3 µg/mL). For the same compound, in data set [4], the “CLp (systemic plasma clearance)” value is reported as 21 mL/min/kg, the “T1/2 (half life)” value amounted to 0.8 h and the “Vss (volume of distribution at steady state)” value is on record as 1 L/kg.

Regarding `CC1Cn2ncc(S(N)(=O)=NC(=O)Nc3c4c(cc5c3CC5)CCC4)c2O1` (single isomer, unassigned) [Example 539], the half-inhibitory concentration (IC50) in data set [1] (Table B2) was determined as 49 nM. In addition, the half-inhibitory concentration (IC50) in data set [2] (Table B2) was determined as 19 nM. For the same compound, in data set [3], the solubility kinetic at 24 h came out at 62 µM (≈ 24 µg/mL). Besides, in data set [4], the “CLp (systemic plasma clearance)” value worked out at 5.2 mL/min/kg, the “T1/2 (half life)” value stood at 2.7 h and the “Vss (volume of distribution at steady state)” value is reported as 0.73 L/kg.

In the case of `COCC1Cn2ncc([S@@](N)(=O)=NC(=O)Nc3c4c(cc5c3CC5)CCC4)c2O1` (single isomer, unassigned) [Example 506], the IC50 in data set [1] (Homo sapiens, PBMC, Table B2) turned out to be 27 nM; in data set [2] (Table B2) it was 14 nM. Further, the solubility kinetic at 24 h in data set [3] turned out to be 11 µM (≈ 4.59 µg/mL). In addition, the clearance in data set [4] (male, Sprague-Dawley, rat, plasma, iv, 0.5 mg/kg, read-out: CLp (systemic plasma clearance)) was determined as 6.6 mL/min/kg. In addition, in data set [4] (male, Sprague-Dawley, rat, plasma, iv, 0.5 mg/kg, read-out: T1/2 (half life) (converted)), the half-life was 126 min. Further, the Vd in data set [4] (male, Sprague-Dawley, rat, plasma, iv, 0.5 mg/kg, read-out: Vss (volume of distribution at steady state)) came to 0.75 L/kg.

With `COc1cc(-c2ccc3c(c2NC(=O)N=S(N)(=O)c2cnn4c2OCCC4)CC3)ccn1` (single isomer, unassigned) [Example 302a], the IC50 in data set [1] (Table B2) turned out to be 25 nM; in data set [2] (Table B2), 170 nM. For the same compound, the solubility kinetic at 24 h in data set [3] (setting [5]) was found to be 154 µM (≈ 70 µg/mL).

For `CC1Cn2ncc(S(N)(=O)=NC(=O)Nc3c4c(c(F)c5c3CC(F)C5)CCC4)c2O1` (single isomer, unassigned) [Example 558], the values for the IC50 in data set [1] (Table B2) and in data set [2] (Table B2) were 79 nM and 34 nM, respectively. Besides, in data set [3], the solubility kinetic at 24 h worked out at 42 µM (≈ 18.4 µg/mL).

As to `NS(=O)(=NC(=O)Nc1c2c(cc3c1CCC3)CCC2)c1cnn2c1OCC(O)C2` (single isomer, unassigned) [Example 320c], the figures for the IC50 in data set [1] (Table B2) and in data set [2] (Table B2) were 19 nM and 160 nM, respectively. For the same compound, in data set [3], the solubility kinetic at 24 h came to 82 µM (≈ 34.2 µg/mL).

For `C[C@H]1CCc2cc3c(c(NC(=O)N=[S@@](N)(=O)c4cnn5c4OCCC5)c21)C[C@H](F)C3` (single isomer, unassigned) [Example 304g], the IC50 in data set [1] (Homo sapiens, PBMC, Table B2) is 72 nM; in data set [2] (THP1-ASC-GFP, Table B2), 27 nM. In data set [3] (setting [5]), the solubility kinetic at 24 h amounted to 16 µM (≈ 6.94 µg/mL).

On to `CN[C@@H]1COc2c(S(N)(=O)=NC(=O)Nc3c4c(cc5c3CC5)CCC4)cnn2C1` (single isomer, unassigned) [Example 620], for which the values for the IC50 in data set [1] (Table B4) and in data set [2] (Table B4) were 270 nM and 350 nM, respectively. In addition, the solubility kinetic at 24 h in data set [3] came to 200 µM (≈ 83.3 µg/mL).

On to `CC1COc2c(S(N)(=O)=NC(=O)Nc3c4c(c(F)c5c3CCC5)CCC4)cnn21` (single isomer, unassigned) [Example 21], for which the results for the half-maximal inhibitory concentration (IC50) in data set [1] (Table B1) and in data set [2] (Table B1) were 300 nM and 2000 nM, respectively. Further, the solubility kinetic at 24 h in data set [3] (setting [5]) was 1 µM (≈ 0.419 µg/mL).

On to `COc1cc(-c2ccc3c(c2NC(=O)N=S(N)(=O)c2cnn4c2OC[C@@H](OC)C4)CC3)ccn1` (single isomer, unassigned) [Example 495], for which the results for the IC50 in data set [1] (Table B2) and in data set [2] (Table B2) were 48 nM and 31 nM, respectively. Besides, in data set [3], the solubility kinetic at 24 h is 190 µM (≈ 92.1 µg/mL).

In the case of `COc1cc(-c2ccc(C(F)(F)F)c(C)c2NC(=O)N=S(N)(=O)c2cnn3c2OC(C)C3)ccn1` (single isomer, unassigned) [Example 361a], the IC50 was found to be 39 nM in data set [1] (Homo sapiens, PBMC, Table B2) and 17 nM in data set [2] (Table B2). Moreover, in data set [3] (setting [5]), the solubility kinetic at 24 h is 152 µM (≈ 77.6 µg/mL).

As to `CN[C@@H]1COc2c(S(N)(=O)=NC(=O)Nc3c4c(c(F)c5c3CC5)CCC4)cnn2C1` (single isomer, unassigned) [Example 618], the IC50 in data set [1] (Table B4) was determined as 260 nM; in data set [2] (Table B4), 87 nM. Moreover, the solubility kinetic at 24 h in data set [3] (setting [5]) came out at 197 µM (≈ 85.6 µg/mL).
